Measurements: patent publication US20120107246A1, “METHOTREXATE-MODIFIED NANOPARTICLES AND RELATED METHODS” (WASHINGTON, UNIVERSITY OF, priority 2005, published 2012)

What was measured:
[1] = test system: 9L cells; experiment: leucovorin rescue of 9L cells exposed to free methotrexate; assay type: cell-based, rat
Description: Methotrexate induces apoptosis in cells through inhibition of the folic acid cycle by acting on the enzyme, dihydrofolate reductase (DHFR). The substitution of a […] at position four of the pteridine ring transforms the molecule from a substrate of DHFR to a tight binder. […] Leucovorin (folinic acid) is commonly used in high dose chemotherapy to rescue the folic acid cycle in healthy cells and reduce the deleterious side effect of the therapy. Leucovorin rescues the cell cycle by being actively metabolized into reduced folates, increasing the intracellular concentration of the reduced folates within the cytoplasm. […] Previous studies used leucovorin to rescue MCF-7 and HeLa cells following exposure to free methotrexate, but no studies have been reported in using leucovorin for the 9L cell line. Thus, the first step in this study was to determine whether the 9L cells would respond to leucovorin induced rescue following the cellular exposure to free methotrexate.

[2] = in humans; cited from earlier work
[3] = test system: HeLa cells; experiment: cell viability (surviving fraction) by cell count; settings: up to 120 hours in culture, nanoparticles 0.01-0.1 mg/mL iron, soluble methotrexate 2 μg/mL
Description: Human breast cancer cells (MCF-7), and human cervical cancer cells (HeLa) were obtained from the Fred Hutchinson Cancer Research Center, Seattle, Wash. Cells were grown in T-75 flasks with RPMI Media (Invitrogen) supplemented with 10% fetal calf serum, 5958 mg/mL HEPES, 300 mg/mL L-Glutamine, 50 ug/mL streptomycin and 50 IU/mL penicillin. Cells were cultured at 37° C. in a humidified atmosphere with 5% CO2 with the medium being changed every third day. The cells were transferred to RPMI-1640 folate free medium (Invitrogen) 24 hours prior to plating. The cells were then subcultured in 24-well plates at a concentration of 25,000 cells/mL in RPMI-1640 folate-free medium. […] In addition, a control media containing soluble methotrexate was prepared at a concentration of 2 μg/mL. Cells were also cultured in 1 mL medium without nanoparticles as the control. The cell culture proceeded for 24, 48, 72, 96, and 120 hours respectively at which time, the cells were washed three times with 1 mL of Hank's Balanced Salt Solution (HBSS, Invitrogen), detached with 500 μL of 0.25% trypsin-EDTA (Sigma), and resuspended in 1 mL of Phosphate Buffered Saline (PBS) supplemented with 10% FBS. Cell viability was determined by cell count via a model Z1 Beckman particle counter.

SMILES | leucovorin concentration at which cells showed continued proliferation ([1]; 9L cells after 2 hours exposure to methotrexate, 48 hours incubation with LV) | sufficient concentration of LV to ensure cell rescue ([1]; 9L cells after methotrexate exposure) | half-life [2] | reduction in cell viability / cytotoxicity [3]
Nc1nc2c(c(=O)[nH]1)N(C=O)C(CNc1ccc(C(=O)N[C@@H](CCC(=O)O)C(=O)O)cc1)CN2 (stereo partly shown) [leucovorin, Leucovorin (folinic acid)] | ≥ 1 µg/mL | ~10 µg/mL |  | 
CN(Cc1cnc2nc(N)nc(N)c2n1)c1ccc(C(=O)N[C@@H](CCC(=O)O)C(=O)O)cc1 [methotrexate, Methotrexate] |  |  | 2 to 3 h | slightly higher cytotoxicity
